# Values quoted from earlier work, collected in US7994139B2, “Antiviral therapeutic agents” (BioCryst Pharmaceuticals, Inc., priority 2008, dated 2011).
# System: HCV
smiles,measurement,setting,value
"NC(=O)c1ncn([C@@H]2O[C@H](CO)[C@@H](O)[C@H]2O)n1 [Ribavirin, 1-β-D-ribofuranosyl-1-1,2,4-triazole-3-carboxamide]",serum levels of HCV-RNA,"patients, used as sole treatment",does not lower serum levels of HCV-RNA
same,patients in whom serum amino transferase levels are reduced to normal,ribavirin alone,40%
